# Assay: gradient 5% acetonitrile 3 min, to 50% in 2 min, to 85% in 15 min, held 3 min, 100 µL/min
# Conditions: column: Zorbax Extend-C18 2.1 x 50 mm; eluents: water / acetonitrile, 0.1% formic acid
# Procedure, shortened: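 A Zorbax Extend-C18 column (2.1 × 50 mm, 1.8 μm) run at 100 μL/min with water and acetonitrile, both containing 0.1% formic acid, separated mixtures of ~100 pure standards. The HPLC was coupled to a quadrupole time-of-flight mass spectrometer operated in positive and negative ionization mode, with dead and dwell volumes of 40 μL and 900 μL. Each retention time was taken from a computationally picked adduct peak that was then manually inspected.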
row,RP-LC retention time,Compound
1,945 s,O=C(Cn1cccc1-c1nnc(C2CCC2)o1)Nc1ccc(F)c(F)c1
2,839 s,COCCn1c(C)c(C)c(S(=O)(=O)c2ccc(F)cc2)c1NC(=O)C1CCCO1 (centres undefined)
3,882 s,O=C(Cn1c(=O)cc(-c2nc(C3CC3)no2)c2ccccc21)NCc1cccs1
4,581 s,Nc1ncnc2c1ncn2C=C=CCO
5,811 s,CCCCOc1ccc(NC(=O)c2cc(=O)c3cc(Br)ccc3o2)c2cccnc12
6,848 s,COc1ccc(N2CCN(c3ncc(S(=O)(=O)c4ccccc4)c(N)n3)CC2)cc1
7,687 s,Cc1c2cnn(-c3ccccc3)c(=O)c2c(C)n1CCCC(=O)NCC1CCCO1 (centres undefined)
8,584 s,CC(=O)c1cccc(Nc2c(C(=O)N3CCOCC3)cnc3nc(C)ccc23)c1
9,707 s,O=C(Cn1nc2c3ccccc3ncn2c1=O)NCCc1ccc(Cl)cc1
10,682 s,CCC(C)NC(=O)C1CCN(S(=O)(=O)c2ccc3c(c2)CCCC(=O)N3)CC1 (centres undefined)
11,1180 s,COc1ccc(-c2noc(Cc3nc(-c4ccc(Br)cc4)cs3)n2)c(OC)c1
12,635 s,O=C(Nc1ccc(N2CCN(C3CCCC3)C2=O)nc1)c1ccncc1
13,773 s,O=C(Cc1ccccc1Cl)NCCCn1cccc1
14,554 s,CNC(=O)[C@@H]1CN(C(=O)CCn2nc(C)cc2C)C[C@H]1c1n[nH]c(C)n1
15,1080 s,COc1cc(NC(=O)COc2cc(C)nc(-c3ccc(C(F)(F)F)cc3)n2)cc(OC)c1OC
16,643 s,O=C(CC(F)(F)F)N1CCC(c2noc(-c3cccnc3)n2)C1 (centres undefined)
17,816 s,Cc1noc(C)c1S(=O)(=O)N1CCC[C@H](n2c(=O)n(C)c3cccnc32)C1
18,729 s,CCOc1ccccc1NC(=O)CNC(=O)c1c[nH]c2ccccc12

row,RP-LC retention time,Compound
1,662 s,COc1ccc(C2C(C(=O)NC(C)C)c3cc(OC)c(OC)cc3C(=O)N2C)cc1OC (centres undefined)
2,810 s,Cc1nc(-c2ccc3c(c2)n(CC(=O)NC(C)(C)C)c(=O)n3C(C)C)no1
3,1040 s,CC(C)c1noc(C2(NC(=O)c3cccc(F)c3)CCCCC2)n1
4,922 s,O=C(Cc1ccccc1F)N1CCC(c2nc(-c3ccccc3)no2)C1 (centres undefined)
5,738 s,Cc1ccccc1S(=O)(=O)N1CC[C@@H]2CN(c3cnccn3)[C@@H]2C1
6,976 s,COc1ccccc1C1=NN(C(=O)c2ccccc2C)C(c2ccco2)C1 (centres undefined)
7,946 s,Cc1nc(-c2csc(S(=O)(=O)N3CCCC(C(=O)Nc4ccc(F)cc4)C3)c2)no1 (centres undefined)
8,679 s,CCN1CCCCc2cc(C(=O)NCC(N)=O)sc21
9,606 s,CCN1CCN(c2ccc(-c3ccc(OC)c(S(=O)(=O)N4CCCC4)c3)nn2)CC1
10,949 s,Fc1ccc(-c2ccnc3nc(-c4ccccc4)nn23)cc1
11,779 s,COc1ccc(NC(=O)C2CCc3sc(C(=O)N4CCCC4)cc3C2)cc1F (centres undefined)
12,918 s,O=C(CN1C(=O)C2CCCCN2c2ccc(S(=O)(=O)N3CCCC3)cc21)N1CCCCCC1 (centres undefined)
13,634 s,Nc1ccc(C(=O)c2cccs2)cn1
14,892 s,O=C1NCN(c2ccccc2)C12CCN(CCCC(c1ccc(F)cc1)c1ccc(F)cc1)CC2
15,876 s,CCCCc1ccc(NC(=O)N2CCC(c3cc(N)on3)CC2)cc1
16,707 s,CN(C)C(=O)c1ccc2c(c1)N(CC(=O)NCc1ccc(Cl)cc1)C(=O)CO2
17,1040 s,COc1cccc(NC(=O)Cn2nc3cc(C)nc(Nc4ccc(F)c(C)c4)n3c2=O)c1

# Second part, the molecule before the results:
row,Compound,RP-LC retention time
1,CCOC(=O)c1c(C)c(C(=O)C(C)N(CC)C(=O)c2ccc(Cl)cc2)c(C)n1C (centres undefined),876 s
2,CC(C)n1c(=O)c2ccccc2n(Cc2nc(-c3cccc(C(F)(F)F)c3)no2)c1=O,1230 s
3,CCC(C)NC(=O)C1CCN(c2nc3cccnc3s2)CC1 (centres undefined),664 s
4,Cc1ccc(NC(=O)N2[C@H]3CC[C@@H]2c2cncnc2C3)cc1F,738 s
5,O=C(c1ccccc1Cl)N1CCN(C(=O)c2nnn3c2COC(c2ccccc2)C3)CC1 (centres undefined),858 s
6,C=CCN1C(=O)COc2ccc(-c3csc(NC(=O)CCC4CCCCC4)n3)cc21,1210 s
7,CCN(CC)C(=O)Nc1ccc(C)c(Cl)c1,827 s
8,Cn1cnc(S(=O)(=O)N2CCC[C@H](n3c(=O)n(C)c4cccnc43)C2)c1,654 s
9,Cn1cc(C=O)c2nccnc21,631 s
10,CCOC(=O)N1CCN(c2nc(F)c3c(c2F)S(=O)(=O)CCN3C2CCCCC2)CC1,1170 s
11,CC1=C(c2ccccc2)S(=O)(=O)N=C1N1CCCN(C(=O)c2ccccc2Cl)CC1,811 s
12,CCn1cc(CCNC(=O)Nc2cccc(OC)c2)c2cccnc21,733 s
13,COC(=O)c1ccc(C2CC(=O)NC3=C2C(=O)CC(c2ccccc2Cl)C3)cc1 (centres undefined),881 s
14,COc1ccc2c(c1)C1(CCN(C(=O)NC(C)(C)C)C1)C(=O)N2 (centres undefined),695 s
15,CN1CCN(C2=Cc3ccccc3Oc3ccc(Cl)cc32)CC1,818 s
16,O=C(C1CCCN(c2nn3c(=O)c4c(nc3s2)CCCC4)C1)N1CCC2(CC1)OCCO2 (centres undefined),674 s
17,c1ccc(-c2nc(-c3ccc(-n4cccn4)nc3)no2)cc1,1200 s
18,CC1=C(C(=O)OCCCc2ccccc2)C(c2cccs2)NC(=O)N1 (centres undefined),882 s
19,O=C(NCc1cccc(Cl)c1)c1ccc(-c2nc3cccnc3n2C2CCCCC2)cc1,1050 s
20,CC(=O)OCC(=O)[C@@]1(O)CCC2C3CCC4=CC(=O)CC[C@]4(C)C3=CC[C@@]21C (some centres undefined),776 s
21,CNC(=O)N1CCCC(c2nc(C(C)C)no2)CCNC(=O)CC1 (centres undefined),606 s
22,CCc1nc2c(NC(=O)NCc3ccccc3)cccn2n1,778 s
23,Oc1ccc2c3c1O[C@H]1c4oc5ccccc5c4C[C@@]4(O)[C@@H](C2)N(CC2CC2)CC[C@]314,673 s
24,Cc1ccc(N2CC(c3nc(-c4ccc(N(C)C)cc4)no3)CC2=O)cc1Cl (centres undefined),1160 s
25,Nc1nc(N)c2nc(-c3cccc(O)c3)c(-c3cccc(O)c3)nc2n1,630 s
26,Cc1cc(OCCCCOc2ccc(C#N)cc2)ccc1[N+](=O)[O-],1250 s
27,Cc1cc(S(=O)(=O)N2CCOC23CCN(C(=O)C2CC2)CC3)ccc1F,789 s

row,Compound,RP-LC retention time
1,CC(=O)Nc1cccc(N2CC(C(=O)Nc3ccc(OC(F)(F)F)cc3)CC2=O)c1 (centres undefined),760 s
2,O=C(CSc1nnc2c3cc(-c4ccccc4)nn3ccn12)NCc1ccccc1Cl,800 s
3,COC(=O)c1cnc2nc(C)ccc2c1Nc1ccc2c(c1)OCCO2,652 s
4,CSc1cccc(NC(=O)C2CCCN(C(=O)c3cc(C)cc(C)c3)C2)c1 (centres undefined),1010 s
5,Cc1ccc(CN(CC(=O)N2CCNCC2)C(=O)c2sccc2C)cc1,720 s
6,COc1ccc2c(c1)C1(CCN(S(=O)(=O)c3ccc(C)cc3)C1)C(=O)N2C (centres undefined),929 s
7,Cc1ccc(NC(=O)N2CCC(n3cnc4cc(Cl)ccc4c3=O)CC2)cc1,856 s
8,CC(C)CCNC(=O)c1ccc(Cn2c(C(F)(F)F)nc3cccnc32)cc1,905 s
9,CC1CCCN(S(=O)(=O)c2ccc(-n3cnc(C(=O)NCC4CC4)c3)nc2)C1 (centres undefined),902 s
10,Cc1ccc(Nc2nc3ccncc3n(Cc3ccccc3)c2=O)cc1Cl,898 s
11,Cc1cc(OC(C)C(=O)N[C@H](C(=O)O)C(C)C)c2c3c(c(=O)oc2c1)CCCC3 (some centres undefined),865 s
12,Cc1cccc(NC(=O)CN2C(=O)C3CCCN3C(=O)c3ccc(F)cc32)c1C (centres undefined),731 s
13,CCOc1ccccc1NC(=O)c1ccc(=O)n(Cc2ccccc2)n1,980 s
14,Cc1ccc(NC(=O)N2CCN(c3ccc(=O)n(-c4ccccc4)n3)CC2)cc1Cl,708 s
15,O=C(CN1CCc2ccccc2C1C(=O)N1CCCCC1)NCc1ccc(F)cc1Cl (centres undefined),918 s
16,CCCN1C(=O)COc2ccc(-c3noc(C4CC(=O)N(c5ccc(C)cc5)C4)n3)cc21 (centres undefined),941 s
17,CCOc1ccc(NC(=O)CNC(=O)C2CCCCC2)cc1,733 s
18,Cc1cc(C)cc(NC(=O)C2CC(=O)N(CCc3c[nH]c4ccc(F)cc34)C2)c1 (centres undefined),889 s
19,CCN1CCC(N(Cc2cccs2)C(=O)Nc2ccccc2C)CC1,646 s
20,Cc1nn(-c2ccc(N3CCOCC3)nn2)c(C)c1CCC(=O)NCc1ccco1,633 s
21,Brc1ccc2nc(N3CCNCC3)sc2c1,557 s
22,Cc1cc(C)c(S(=O)(=O)N2CC(F)(F)C[C@H]2COc2cccnc2)cc1C,817 s
23,CCS(=O)(=O)c1ccc2c(c1)N(Cc1nc(-c3ccc(C)cc3)no1)C(=O)CO2,945 s
24,CCN1CCn2cc(S(=O)(=O)Nc3cccc(C(=O)OC)c3)cc2C1=O,703 s
25,Cc1cc(C(=O)N2CC3CC(C2)c2cccc(=O)n2C3)c(C)o1 (centres undefined),590 s
26,COc1cccc(CNC(=O)c2c(C(F)(F)F)nn(C)c2C)c1,722 s
27,COc1ccc(C2Cn3nnc(-c4nc(C(C)C)no4)c3CO2)cc1 (centres undefined),936 s

# Reference: the METLIN SMRT retention time set (Domingo-Almenara et al. 2019)
